The values below come from ChEMBL document CHEMBL3632572, “Adenosine/guanosine preferring nucleoside ribohydrolase is a distinct, druggable antitrichomonal target” (Bioorg Med Chem Lett, 2015).

In one assay the test system is Trichomonas vaginalis. Description: Inhibition of Trichomonas vaginalis uridine ribohydrolase after 40 mins.
A short description of assay [1]: Inhibition of Trichomonas vaginalis adenosine-guanosine preferring ribohydrolase after 40 mins in presence of 0.01% triton X-100.
A short description of assay [2]: Inhibition of Trichomonas vaginalis adenosine-guanosine preferring ribohydrolase after 40 mins.

Activity calls are given as the source filed them. No cut-off for these calls is given here.

In the case of `OC[C@H]1O[C@@H](n2cnc3c(NC4CCCC4)nc(Cl)nc32)[C@H](O)[C@@H]1O`, the inhibition entry in the assay with Trichomonas vaginalis was “inactive”. In addition, the results for the IC50 in assay [1] and in assay [2] were 11.7 µM and 9.8 µM, respectively.

For `O=C1c2c(O)cc(O)cc2OC(c2ccc(O)c(O)c2)C1O` (racemic) [TAXIFOLIN], the inhibition result with Trichomonas vaginalis was “inactive”. The IC50 in assay [1] amounted to 12.5 µM; in assay [2] it was 5.9 µM.

Take `O=C1c2c(O)cc(O)cc2O[C@H](c2ccc(O)c(O)c2)[C@H]1O` [(+)-TAXIFOLIN]: the inhibition entry in the assay with Trichomonas vaginalis is “inactive”. The IC50 in assay [1] turned out to be 34.2 µM; in assay [2], 9.3 µM.

For the molecule `COc1ccccc1OCCNCC(O)COc1cccc2[nH]c3ccccc3c12` (stereo not drawn) [CARVEDILOL], in the assay on Trichomonas vaginalis, the inhibition result was “inactive”. The molecule further had a concentration for half-maximal inhibition (IC50) in assay [2] of 10.4 µM.

Take `O=c1c(O[C@@H]2O[C@H](CO)[C@H](O)[C@H](O)[C@H]2O)c(-c2ccc(O)c(O)c2)oc2cc(O)cc(O)c12` [HYPEROSIDE]: in the assay with Trichomonas vaginalis, the inhibition result was “inactive”. The IC50 in assay [1] is 4 µM; in assay [2] it was 2.2 µM.

As for `Cc1ccc(NC(=O)c2ccc(CN3CCN(C)CC3)cc2)cc1Nc1nccc(-c2cccnc2)n1` [IMATINIB], the inhibition result with Trichomonas vaginalis is “inactive”. In addition, the figures for the half-inhibitory concentration (IC50) in assay [1] and in assay [2] were 3.5 µM and 1.8 µM, respectively.

On to `O=c1c(O[C@@H]2O[C@H](CO)[C@@H](O)[C@H](O)[C@H]2O)c(-c2ccc(O)c(O)c2)oc2cc(O)cc(O)c12` [ISOQUERCETIN], for which the inhibition result in the assay on Trichomonas vaginalis was “inactive”. Also, the IC50 in assay [1] was found to be 0.9 µM; in assay [2], 0.3 µM.

Regarding `C[C@@H]1O[C@@H](OC[C@H]2O[C@@H](Oc3c(-c4ccc(O)c(O)c4)oc4cc(O)cc(O)c4c3=O)[C@H](O)[C@@H](O)[C@@H]2O)[C@H](O)[C@H](O)[C@H]1O` [RUTIN], the inhibition entry with Trichomonas vaginalis was “inactive”. Also, the IC50 in assay [1] came to 17.3 µM; in assay [2] it was 10.2 µM.
